The experiment deals with CD1 mice. The experiment can be described thus: Acute hepatotoxicity: lethal intoxication by the Jo2 antibody (survival). As to conditions: for Survival rate: 24 hrs. It counts as in vivo. The protocol:
Male adult CD1 mice from the breeder “Elevage Janvier”, (Le Genest-Saint-Isle, France) were used. The animals were identified individually and had free access to water and food.
A stock solution of monoclonal hamster anti-mouse CD95 (Fas) antibody, called Jo2, from Pharmingen (BD Biosciences, ref. 554254 batch 32699) is prepared at a concentration of 1 mg/mL in water. The dilutions used are made in 0.9% sodium chloride in water.
The desired amount of 3,5-seco-4-nor-cholestan-5-one oxime-3-ol is weighed and milled into a fine powder, and then mixed with Cremophore EL (Sigma C5135) and absolute ethanol (Carlo Erba RPE 41571) (5% and 10% of the final volume, respectively). After complete dissolution, 0.9% sodium chloride in water is added extemporaneously (85% of the final volume).
In this experiment, the effect of 3,5-seco-4-nor-cholestan-5-one oxime-3-ol on the survival of animals after administering a lethal dose of the Jo2 antibody is evaluated.
The Jo2 antibody is administered by intraperitoneal injection at a dose of 200 ou 250 μg/kg in a volume of 5 mL/kg of body weight.
3,5-seco-4-nor-cholestan-5-one oxime-3-ol is tested at 10 and 30 mg/kg, as a pretreatment, 1 hr before administering Jo2 or as a post-treatment, 1 hr after administering Jo2.
A control is obtained with animals receiving pretreatment by intraperitoneal administration, 1 hr before or 1 hr after administering the antibody, of an identical volume of solution having been used for preparing the compound to be tested, without the compound.

Molecules are shown by their SMILES.

Consider one compound from patent US7985774B2, “Use of 3,5-seco-4-nor-cholestane derivatives for obtaining a cytoprotective drug” (Trophos, priority 2006, dated 2011).

As to `CC(C)CCC[C@@H](C)[C@H]1CC[C@H]2[C@@H]3CC/C(=N\O)[C@](C)(CCCO)[C@H]3CC[C@]12C` [3,5-seco-4-nor-cholestan-5-one oxime-3-ol], the Survival rate by setting is: (Experience 5: Jo2 200 μg/kg, 10 mg/kg post-treatment, control 30) 60%; (Experience 6: Jo2 200 μg/kg, 30 mg/kg post-treatment, control 20) 60%; (Experiment 1: Jo2 250 μg/kg, 10 mg/kg pretreatment, control 25) 65%; (Experiment 2: Jo2 250 μg/kg, 30 mg/kg pretreatment, control 10) 90%; (Experiment 3: Jo2 250 μg/kg, 10 mg/kg post-treatment, control 10) 15%; (Experiment 4: Jo2 250 μg/kg, 30 mg/kg post-treatment, control 5) 35%. The “Mortality (24 hrs)/total number of animals” value was 8/20 (Experience 5: Jo2 200 μg/kg, 10 mg/kg post-treatment, control 14/20); 8/20 (Experience 6: Jo2 200 μg/kg, 30 mg/kg post-treatment, control 16/20); 7/20 (Experiment 1: Jo2 250 μg/kg, 10 mg/kg pretreatment, control 15/20); 2/20 (Experiment 2: Jo2 250 μg/kg, 30 mg/kg pretreatment, control 18/20); 17/20 (Experiment 3: Jo2 250 μg/kg, 10 mg/kg post-treatment, control 18/20); 13/20 (Experiment 4: Jo2 250 μg/kg, 30 mg/kg post-treatment, control 19/20).
